This is an account of results in US20170128475A1, “COMPOSITIONS AND METHODS FOR PREVENTING AND TREATING ORGAN INJURY AND/OR DYSFUNCTION” (THE GENERAL HOSPITAL CORPORATION, priority 2010, published 2017).

One data set has as its system Cx32+/+ and Cx32−/− mice. Description: TAA-induced mortality in Cx32+/+ and Cx32−/− mice. To be noted: single lethal dose 500 mg/kg TAA, 30 days. Format: in vivo. As for the experimental part: FIG. 1C is a series of micrographs showing less liver hemorrhaging, necrosis and acute inflammation in Cx32−/− mice compared to Cx32+/+ mice 24 hours after TAA treatment (H&E staining; original magnification 10×; scale bar=400 μm). FIG. 1D presents bar graphs depicting increase in total liver TNF-α, pro-IL-1α, IL-6, and CCL5 transcripts, as measured by Q-PCR, in Cx32+/+ mice 12 hours after TAA, compared to Cx32−/− mice. FIG. 1E is a bar graph of liver tissue myeloperoxidase activity (MPO) in Cx32+/+ and Cx32−/− mice 24 hours after treatment with TAA. FIG. 1F is a Kaplan-Meier survival curve for Cx32+/+ and Cx32−/− mice over 30 days after a single lethal dose of 500 mg/kg TAA (Cx32+/+ and Cx32−/−: n=12).
C57BL/6 mice were purchased from Jackson Laboratory. Cx32−/− mice were a generous gift from K. Willecke (University of Bonn) and D. Paul (Harvard University). All animal protocols were approved by Massachusetts General Hospital Subcommittee on Research Animal Care. For survival experiments, animals were euthanized when they became moribund according to the criteria of lack of response to stimuli or lack of righting reflex.
TAA (Sigma Aldrich, St. Louis, Mo.) solution was made fresh for each experiment in 0.9% saline at 20 mg/ml. TAA was dosed at 200, 500 or 1000 mg/kg, depending on the experiment, and injected intraperitoneally. Control mice received the appropriate volume of 0.9% saline. […]

Data set [1] concerns Cx32 gap junctions. In words: Dye-coupling parachute assay, HeLa Cx32 cells. The following applies: 2APB 100 μM, 4 hours, normalized to no 2APB. It is filed as cell-based. As for the experimental part:
(§1) FIG. 2A-FIG. 2F presents data on small molecule inhibitors of Cx32 that selectively block hepatic gap junction communication and limit drug-induced hepatotoxicity. FIG. 2A and FIG. 2B depict a dye-coupling parachute assay was used to determine the specificity of 2APB for Cx32 gap junctions compared to Cx43 gap junctions. HeLa Cx32 or Cx43 cells were loaded with gap junction permeable calcein-AM (10 μM) and impermeable CM-DiI (10 μM), and seeded onto unlabeled recipient HeLa Cx32 or Cx43 cells, respectively, in the presence or absence of 2APB (100 μM). After 4 hours, the co-culture was analyzed by fluorescence microscopy (n>5), and gap junction communication was assessed by calculating the average number of calcein positive cells per CM-Dil positive cells, normalized to control conditions without 2APB treatment. FIG. 2C depicts a tissue version of the scrape and load test, developed to evaluate functional gap junction intercellular communication in liver tissue. Cx32+/+ and Cx32−/− mice were treated with saline, 2APB (20 mg/kg), or 2APB plus TAA (200 mg/kg) for 3 hours. […] Slices were washed, fixed, cryosectioned (7 μm), and analyzed by fluorescence microscopy (n>5) and custom automated image analysis software to produce iso-intensity contour maps outlining spread of Lucifer yellow and dextran-Texas red. […]

The subject of the next data set is Cx43 gap junctions. Description: Dye-coupling parachute assay, HeLa Cx43 cells. To be noted: 2APB 100 μM, 4 hours, normalized to no 2APB. It is filed as cell-based. As for the experimental part: as §1
For data set [2], the system named is hepatic gap junction communication. In words: Tissue scrape and load assay on explanted liver slices. It is filed as in vivo, mice. To be noted: 2APB 20 mg/kg i.p.; livers excised after 3 hours. As for the experimental part:
as §1, with “treatment.” for “treatment. FIG. 2C depicts a tissue version of the scrape and load test, developed to evaluate functional gap junction intercellular communication in liver tissue. Cx32+/+ and Cx32−/− mice were treated with saline, 2APB (20 mg/kg), or 2APB plus TAA (200 mg/kg) for 3 hours.”
Fluorescence images were captured on a Zeiss 200 Axiovert microscope at a fixed exposure and gain. Images for the tissue scrape load assay were quantified using custom image analysis routines written in MATLAB13. […] Regional outlines were plotted as contour maps by displaying iso-intensity lines at the determined threshold level.

For data set [3], the system named is wild type mice. Description: TAA-induced hepatotoxicity in wild type mice treated with 2APB. It is filed as in vivo. To be noted: for total hepatic ROS levels: 2APB (20 mg/kg) coadministered with TAA (200 mg/kg), 4 hours, dihydroethidium staining. As for the experimental part: FIG. 2A-FIG. 2F presents data on small molecule inhibitors of Cx32 that selectively block hepatic gap junction communication and limit drug-induced hepatotoxicity. FIG. 2A and FIG. 2B depict a dye-coupling parachute assay was used to determine the specificity of 2APB for Cx32 gap junctions compared to Cx43 gap junctions. HeLa Cx32 or Cx43 cells were loaded with gap junction permeable calcein-AM (10 μM) and impermeable CM-DiI (10 μM), and seeded onto unlabeled recipient HeLa Cx32 or Cx43 cells, respectively, in the presence or absence of 2APB (100 μM). After 4 hours, the co-culture was analyzed by fluorescence microscopy (n>5), and gap junction communication was assessed by calculating the average number of calcein positive cells per CM-Dil positive cells, normalized to control conditions without 2APB treatment. FIG. 2C depicts a tissue version of the scrape and load test, developed to evaluate functional gap junction intercellular communication in liver tissue. Cx32+/+ and Cx32−/− mice were treated with saline, 2APB (20 mg/kg), or 2APB plus TAA (200 mg/kg) for 3 hours. Livers were excised, cut into 2-3 mm slices, and a small area of each slice was mechanically damaged with the insertion of a 27 gauge needle coated with 0.5% Lucifer yellow (gap junction permeable) and 0.5% Texas red labeled dextran (gap junction impermeable). Slices were washed, fixed, cryosectioned (7 μm), and analyzed by fluorescence microscopy (n>5) and custom automated image analysis software to produce iso-intensity contour maps outlining spread of Lucifer yellow and dextran-Texas red. […] FIG. 2D: Serum alanine aminotransferase (ALT) levels; FIG. 2E: liver tissue MPO activity; and FIG. 2F: H&E liver sections (original magnification 10×; scale bar=400 μm) from wildtype mice pretreated with 2APB (20 mg/kg) or vehicle for 60 minutes, and then challenged with TAA (200 mg/kg) for 24 hours.
(§2) Serum ALT levels (FIG. 3A); liver tissue MPO activity (FIG. 3B); and H&E liver sections (FIG. 3C) (original magnification 10×; scale bar=400 μm) from wildtype mice after treatment with 2APB alone (20 mg/kg), TAA (200 mg/kg) plus vehicle, TAA (200 mg/kg) plus 2APB (1 or 20 mg/kg), APAP (500 mg/kg) plus vehicle, or APAP (500 mg/kg) plus 2APB (20 mg/kg). Livers and sera were collected 24 hours after TAA challenge, or 16 hours after APAP challenge. FIG. 3D reflects Q-PCR for TNF-α, […], IL-6, and CCL5 from whole livers of mice treated with TAA and 2APB as described above. FIG. 3E is a Kaplan-Meier survival curve for wildtype mice over 30 days after a single lethal dose of TAA (500 mg/kg) plus vehicle, or TAA (500 mg/kg) plus 2APB (20 mg/kg) (n=10). Serum ALT levels (FIG. 3F) and H&E liver sections (FIG. 3G) (original magnification 10×; scale bar=400 μm) from wildtype mice after TAA (200 mg/kg) or APAP (500 mg/kg), with or without a rescue injection of 2APB (20 mg/kg) at 1.5, 3 or 6 hours after hepatotoxin challenge. Livers and sera were collected 24 hours after TAA challenge, or 16 hours after APAP challenge.
Liver cryosections from Cx32+/+ mice treated with vehicle, TAA (200 mg/kg) plus vehicle, or TAA (200 mg/kg) plus 2APB (20 mg/kg) for 4 hours were stained with dihydroethidium, a cell permeable free radical probe that binds nucleic DNA and becomes fluorescent when […], and analyzed by fluorescence microscopy for ROS activity (n>5).
TAA (Sigma Aldrich, St. Louis, Mo.) solution was made fresh for each experiment in 0.9% saline at 20 mg/ml. TAA was dosed at 200, 500 or 1000 mg/kg, depending on the experiment, and injected intraperitoneally. Control mice received the appropriate volume of 0.9% saline. Animals were euthanized by ketamine/xylazine injection at 24 hr for collection of serum and liver tissue for qPCR, GSH/GST assay, MPO activity assay, and histology. For survival experiments, animals were observed every 24 hr for 30 days.
2APB (Sigma Aldrich) was made fresh for each experiment in DMSO as a vehicle at 200 mg/ml. […]

Data set [4] deals with wild type mice. Description: APAP-induced hepatotoxicity in wild type mice treated with 2APB. Format: in vivo. As for the experimental part:
as §2
APAP (Sigma Aldrich) solution was made fresh for each experiment in 0.9% saline at 20 mg/ml and heated until dissolved. APAP was dosed at 500 or 750 mg/kg, and injected intraperitoneally after 15 hr of starvation. Animals were euthanized by ketamine/xylazine injection at 16 hr for collection of serum, and liver tissue for MPO activity assay and histology.
2APB (Sigma Aldrich) was made fresh for each experiment in DMSO as a vehicle at 200 mg/ml. 2APB was dosed at 1 or 20 mg/kg, and was administered before (90 min), with, or after (1.5, 3 or 6 hr) the appropriate dose of TAA or APAP. Vehicle control mice received the appropriate volume of DMSO. Fresh anhydrous DMSO (Sigma Aldrich) was used for each experiment. DMSO was dosed at 0.1 or 1 ml/kg, and coadministered concurrently with 200 mg/kg TAA or saline.
Mouse liver tissues were homogenized in MPO buffer (0.5% hexadecyl trimethyl ammonium bromide, 10 mM EDTA, 50 mM Na2HPO4, pH 5.4) using a Polytron homogenizer. Liver homogenates were then subject to three freeze-thaw cycles and cleared by centrifugation. MPO reaction was carried out using the Invitrogen EnzChek Myeloperoxidase Activity Assay Kit (Invitrogen, Carlsbad, Calif.), according to the manufacturer's protocol.

Data set [5] addresses Cx32 gap junctions (Homo sapiens, UniProt P08034). To be noted: shown previously, Tao & Harris, 71 Mol. Pharmacol. 57 (2007); cited from earlier work.
[6] abbreviates: 2APB coadministered with TAA (200 mg/kg), 24 hours.
[7] abbreviates: rescue injection of 2APB (20 mg/kg) 6 hours after TAA (200 mg/kg).
Setting [8] is: single dose 2APB (20 mg/kg) 60 minutes prior to TAA (200 mg/kg), 24 hours, compared to vehicle.
[9] abbreviates: 2APB (20 mg/kg) coadministered with APAP (500 mg/kg), 16 hours.
The mark [10] stands for this setting: rescue injection of 2APB (20 mg/kg) 6 hours after APAP (500 mg/kg).

SMILES strings stand for the structures.

Cx32 gap junctions (Homo sapiens, UniProt P08034), sequence (P08034 whole entry): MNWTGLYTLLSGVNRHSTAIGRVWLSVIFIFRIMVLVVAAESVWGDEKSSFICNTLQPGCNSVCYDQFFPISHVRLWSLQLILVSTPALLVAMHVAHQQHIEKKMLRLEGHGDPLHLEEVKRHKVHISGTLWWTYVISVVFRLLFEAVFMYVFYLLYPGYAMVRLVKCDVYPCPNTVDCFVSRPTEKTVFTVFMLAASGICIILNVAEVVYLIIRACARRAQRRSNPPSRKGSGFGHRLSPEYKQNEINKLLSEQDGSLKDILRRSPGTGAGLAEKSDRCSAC

As for `CC(=N)S` [TAA, thioacetamide], the mortality – broadly, the share of the test organisms that died – in the data set with Cx32+/+ and Cx32−/− mice (Cx32+/+ mice) was determined as 100%. The survival in the data set with Cx32+/+ and Cx32−/− mice (Cx32−/− mice) was 100%.

As to `NCCOB(c1ccccc1)c1ccccc1` [2APB, 2-aminoethyoxydiphenyl-borate], the “spread of calcein via Cx32 gap junctions” value in the data set with Cx32 gap junctions [1] is reported as “blocked”. For the same molecule, the “effect on Cx43 gap junctions (spread of calcein)” value in the data set with Cx43 gap junctions is “minimal effect”. Moreover, the “hepatic gap junction communication in vivo (spread of Lucifer yellow)” value in data set [2] is “effectively blocks”. Moreover, the “total hepatic ROS levels” value in the data set with wild type mice [3] is given as “dramatically reduced”; in the data set with wild type mice [3] (listed as 2-APB) it was “abrogated”; with wild type mice [4] (2APB coadministered with APAP), “dramatically reduced”. Also, the “serum ALT” value with wild type mice [3] (2APB (1 or 20 mg/kg) coadministered with TAA (200 mg/kg), 24 hours, compared with TAA alone) is on record as “dramatically reduced”; in the data set on wild type mice [3] (setting [8]), “significantly reduced”; in the data set with wild type mice [4] (2APB (20 mg/kg) coadministered with APAP (500 mg/kg), 16 hours, compared with APAP alone), “dramatically reduced”. Also, the “histological evidence of hepatic necrosis and hemorrhaging” value in the data set with wild type mice [3] (setting [6]) and with wild type mice [4] (setting [9]) was “dramatically reduced” each time. Besides, the “neutrophil infiltration (liver tissue MPO activity)” value is “dramatically reduced” in the data set on wild type mice [3] (setting [6]), “limited” in the data set with wild type mice [3] (setting [8]) and “dramatically reduced” in the data set on wild type mice [4] (setting [9]). The liver inflammation result in the data set on wild type mice [3] (2APB coadministered with TAA (200 mg/kg), Q-PCR of whole livers) is “dramatically reduced”; in the data set with wild type mice [4] (2APB coadministered with APAP) it was “dramatically reduced”. In addition, the hepatotoxicity result with wild type mice [3] (rescue injection of 2APB (20 mg/kg) 1.5 hours after TAA (200 mg/kg)) and with wild type mice [4] (rescue injection of 2APB (20 mg/kg) 1.5 hours after APAP (500 mg/kg)) was “nearly complete absence” throughout. Moreover, the “hepatocellular damage and necrosis” value in the data set on wild type mice [3] (setting [7]) and in the data set with wild type mice [4] (setting [10]) was “limited” each time. Moreover, the “serum ALT levels” value in the data set with wild type mice [3] (setting [7]) and in the data set on wild type mice [4] (setting [10]) was “reduced” throughout. For the same molecule, the “histological evidence of parenchymal damage” value in the data set with wild type mice [3] (setting [8]) is recorded as “dramatically reduced”. Further, the survival in the data set on wild type mice [3] (single lethal dose TAA (500 mg/kg) plus 2APB (20 mg/kg), 30 days) worked out at 100%. Also, the “inhibition of Cx32 gap junctions in vitro” value on Cx32 gap junctions [5] is on record as “transiently inhibit”.
